Assay results: patent US10662225B2, “Backbone cyclized inhibitory peptides of myeloid differentiation factor 88 (MyD88)” (Yissum Research Development Company of the Hebrew …, priority 2016, dated 2020)
Numbered stars: 1 amine (or outer) side, 2 acyl side, 3 side chain; on linkers, the order of the positions; unused ones are H or OH. Bridge positions count the residues as written; N and C are the ends. Square brackets hold non-standard residues; d marks the D form. Ends that are not written are not given here. Peptide text beside a SMILES is read from it. * marks the point of attachment. Myristoyl = CCCCCCCCCCCCCC(=O)*; CO = O=C([*:1])[*:2]; Nlys = NCCCCNCC(=O)O

Columns and labels:
MyD88 = MyD88 (Homo sapiens, UniProt Q99836); test: Comparison of linear 7-mer peptide with and without N-terminal myristoyl group (assay not specified); details: versus linear MyD88 inhibitor 7-mer peptide
MyD88, sequence (Q99836 whole entry, species assumed): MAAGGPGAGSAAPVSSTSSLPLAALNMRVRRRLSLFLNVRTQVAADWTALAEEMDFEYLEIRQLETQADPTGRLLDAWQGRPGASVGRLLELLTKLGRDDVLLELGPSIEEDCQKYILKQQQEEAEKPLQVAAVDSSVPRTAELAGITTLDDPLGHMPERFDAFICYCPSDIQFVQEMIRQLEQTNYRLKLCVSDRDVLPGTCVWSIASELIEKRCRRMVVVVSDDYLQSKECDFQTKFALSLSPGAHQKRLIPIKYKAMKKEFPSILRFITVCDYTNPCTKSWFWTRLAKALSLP
Source text: The importance of additional moieties to enhance cell penetration is further evaluated. […] Therefore, backbone cyclic peptides with addition of a myristoyl group or other moieties designed to enhance cell penetration are also synthesized and tested for binding, inhibition, stability and permeability.

NFkB activation = test: NFkB-luciferase reporter in RAW 264.7 macrophages stimulated with LPS; type: cell-based, mouse; details: RAW 264.7 NFkB-luc, 4 hours
Procedure: FIG. 13. 4×4MyDI and Myr4×4MyDI block NFkB induction in response to LPS stimulation of RAW 264.7 NFkB-luc cells. RAW 264.7 murine macrophages were transfected with an NFkB-luciferase reporter gene and stimulated with LPS in the absence or presence of increasing concentrations of the inhibitors. After 4 hours cells were lysed and luminescence was recorded using a Tecan plate reader. BG denotes background.
In this assay the mouse macrophage RAW264.7 cell line is transfected with an NFkB-luciferase reporter construct and then cells are stimulated by exposure to bacterial LPS and light emission is measured after addition of luciferase substrate.

[1] = test system: OCI-LY3 (MyD88 L265P) cells; test: Proliferation of lymphoma cells (Promega CellTiter viability assay); type: cell-based, human; details: 48 h; compared with OCI-LY19 (MyD88 WT)
Procedure: FIGS. 18A and 18B. 4×4MyDI and Myr-4×4MyDI block proliferation of Ly3 lymphoma cells that carry the L265P oncogenic mutation in MyD88. Cell lines OCI-LY3 (MyD88^L265P) and OCI-LY19 (MyD88^WT) were grown in RPMI supplemented with 10% FCS. Cells were counted and plated at identical concentrations in triplicate wells of 96 well plates and decreasing concentrations of 4×4MyDI […], or Myr-4×4MyDI (19B), was added to the wells. After 48 h cell viability was tested using the Promega CellTiter viability assay according to the manufacturer's instructions. Percent inhibition was calculated as [(1-OD of well with inhibitor/OD of well without inhibitor)*1001. Negative values in A represent enhanced growth in the presence of the inhibitor.
Genomic DNA was prepared from the human lymphoma cell lines OCI-LY3 (MyD88^L265P) and OCI-LY19 (MyD88^WT) to confirm the presence of the activating L265P mutation in the OCI-Ly3 cells (and the WT sequence in the OCI-Ly19 cells). The MyD88 region was amplified using the forward and reverse primers GGGATATGCTGAACTAAGTTGCCAC (SEQ ID NO: 7) and GACGTGTCTGTGAAGTTGGCATCTC (SEQ ID NO: 8), respectively, as described in Xu, L. et al Blood (2013) 121(11): 2051-2058. The PCR product was sequenced to confirm the mutation.
The cell lines were incubated alone or with increasing concentrations of the 4×4MyDI. […]

MyD88 dimerization = target: T1, MyD88 dimerization (Homo sapiens, UniProt Q99836); test: Co-immunoprecipitation of Flag-MyD88 with HA-MyD88 in HEK293 cells; type: cell-based; details: HEK293, IL-1 stimulation; 4×4MyDI at 20, 2, 0.2 μM; Myr-4×4MyDI at 0.2 or 2000 nM
T1 construct: constructs encoding HA-tagged full length MyD88 and Flag-tagged full length MyD88; expressed in transfected cells; host or cells: HEK293
T1 sequence (Q99836 whole entry): as the sequence (Q99836 whole entry, species assumed) above
Procedure: FIG. 10. 4×4MyDI blocks MyD88 dimerization. HEK293 cells were transfected with two plasmids, one encoding HA-MyD88 and the other encoding FLAG-MyD88 and after 48 hours the cells were either untreated (cont) or treated with 20 μM of the linear MyDI peptide, the scrambled version of the linear MyDI peptide (SEQ ID NO: 5,), or the 4×4MyDI at 20, 2, or 0.2 μM. After 3 h of treatment, cells were stimulated with recombinant human IL-1 (20 ng/ml) for 30 min and then lysed. Whole cell lysates (WCL) were immunoprecipitated with anti-HA beads (Thermo-Scientific) for 30 min and proteins were eluted with glycine Ph 2.0, neutralized, and loaded on an acrylamide gel for analysis. Proteins were transferred to nitrocellulose and the amount of Flag-MyD88 that co-precipitated with HA-MyD88 was detected by immunoblotting (IB) with anti-Flag antibody.
FIGS. 14A and 14B. […] Proteins were transferred to nitrocellulose and the amount of FLAG-MyD88 that co-precipitated with HA-MyD88 was detected by immunoblotting (IB) with anti-FLAG antibody. […] Percent inhibition of co-immunoprecipitation was calculated by comparing densitometry of bands in the treated lanes to control. […]
TLR and IL-1 receptor signaling proceeds through a multimeric protein signaling complex (the “Myddosome”) that is initiated by MyD88 homodimerization. […] Immunoprecipitated protein was eluted and analyzed by immunoblot using an antibody to Flag. […]

Compound | peptide stability on addition of myristoyl group (MyD88) | block of NFkB activation (NFkB activation) | proliferation of OCI-Ly3 cells [1] | MyD88 dimerization (Flag-MyD88 co-precipitated with HA-MyD88) (MyD88 dimerization)
CCCCCCCCCCCCCC(=O)N[C@@H](CCCNC(=N)N)C(=O)N[C@@H](CC(=O)O)C(=O)N[C@H](C(=O)N[C@@H](CC(C)C)C(=O)N1CCC[C@H]1C(=O)NCC(=O)N[C@H](C(=O)O)[C@@H](C)O)C(C)C (Myristoyl-RDVLPGT-OH; N-terminus and C-terminus assumed) | without affecting peptide stability | – | – | –
Myr-4×4MyDI: 4×4MyDI backbone cyclic peptide with a myristoyl group (formula V) (Myristoyl-[Nlys]RDVL[Nlys]GT; bridge 1-6 via CO) | – | greater activity than the 4×4MyDI | specifically blocked proliferation | at least as active as 4×4MyDI
